Reference: US6358885B1, “Substituted phenylheterocyclic herbicides” (Mississippi State University, priority 1992, dated 2002)

What was measured:
cheatgrass = assay: Test B preemergence/postemergence greenhouse plant response rating 0 to 10; type: in vivo, Bromus secalinus; settings: 0 to 10 scale
Procedure, shortened: (§1)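 Test chemicals were sprayed onto freshly planted seed and, concurrently, onto young plants between the one and four leaf stage. After a twelve- to sixteen-day greenhouse period, each species was visually compared with untreated controls.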

corn = assay: as above; type: in vivo, Zea mays; settings: 0 to 10 scale
Procedure, shortened: as §1

cotton [1] = assay: as above; type: in vivo, Gossypium hirsutum; settings: 0 to 10 scale
Procedure, shortened: as §1

lambsquarters [2] = assay: as above; type: in vivo, Chenopodium album; settings: 0 to 10 scale
Procedure, shortened: as §1

rice = assay: as above; type: in vivo, Oryza sativa; settings: 0 to 10 scale
Procedure, shortened: as §1

wheat = assay: as above; type: in vivo, Triticum aestivum; settings: 0 to 10 scale
Procedure, shortened: as §1

wild oat = assay: as above; type: in vivo, Avena fatua; settings: 0 to 10 scale
Procedure, shortened: as §1

bedstraw = assay: Test C preemergence/postemergence greenhouse plant response rating 0 to 100; type: in vivo, Galium aparine; settings: for Plant response rating, Bedstraw: 62 g/ha, 0 to 100 scale
Procedure, shortened: (§2)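 Compounds in non-phytotoxic solvent applied preemergence to sandy loam one day after planting, postemergence at the 1–4 leaf stage, or to ~2.5 cm floodwater over silt loam.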

cotton [3] = assay: as above; type: in vivo, Gossypium hirsutum; settings: for Plant response rating, Cotton: 62 g/ha, 0 to 100 scale
Procedure, shortened: as §2

crabgrass = assay: as above; type: in vivo, Digitaria sanguinalis; settings: for Plant response rating, Crabgrass: 62 g/ha, 0 to 100 scale
Procedure, shortened: as §2

downy brome = assay: as above; type: in vivo, Bromus tectorum; settings: for Plant response rating Downy Brome: 62 g/ha, 0 to 100 scale
Procedure, shortened: as §2

giant foxtail = assay: as above; type: in vivo, Setaria faberii; settings: for Plant response rating, Giant foxtail: 62 g/ha, 0 to 100 scale
Procedure, shortened: as §2

lambsquarters [4] = assay: as above; type: in vivo, Chenopodium album; settings: POSTEMERGENCE
Procedure, shortened: as §2

sorghum = assay: as above; type: in vivo, Sorghum bicolor
Procedure, shortened: as §2

sugar beet = assay: as above; type: in vivo, Beta vulgaris
Procedure, shortened: as §2

velvetleaf = assay: as above; type: in vivo, Abutilon theophrasti
Procedure, shortened: as §2

duck salad = assay: Test C flood test plant response rating 0 to 100; type: in vivo, Heteranthera limosa
Procedure, shortened: as §2

barnyardgrass = assay: Test C flood test plant response rating 0 to 100; type: in vivo, Echinochloa crus-galli
Procedure, shortened: as §2

[5] = POSTEMERGENCE, 62 g/ha, 0 to 100 scale
[6] = POSTEMERGENCE section, flood test, Rate 1 g/ha
[7] = Rate 16 g/ha, under POSTEMERGENCE head (flood test species)
[8] = flood test species listed under POSTEMERGENCE, 62 g/ha, 0 to 100 scale

## CC(C)Oc1cc(-c2nn3c(c2Br)CCCC3)c(F)cc1Cl [Compound 38]
cheatgrass; POSTEMERGENCE, Rate 50 g/ha
  Plant response rating, Cheatgrass: 4
cheatgrass; POSTEMERGENCE, Rate 200 g/ha
  Plant response rating, Cheatgrass: 5
cheatgrass; PREEMERGENCE, Rate 50 g/ha
  Plant response rating, Cheatgrass: 0
cheatgrass; Rate 200 g/ha, PREEMERGENCE
  Plant response rating, Cheatgrass: 3
corn; POSTEMERGENCE, Rate 50 g/ha
  Plant response rating, Corn: 4
corn; POSTEMERGENCE, Rate 200 g/ha
  Plant response rating, Corn: 5
corn; PREEMERGENCE, Rate 50 g/ha
  Plant response rating, Corn: 0
corn; Rate 200 g/ha, PREEMERGENCE
  Plant response rating, Corn: 2
Cotton [1]; POSTEMERGENCE, Rate 50 g/ha
  Plant response rating, Cotton: 9
Cotton [1]; POSTEMERGENCE, Rate 200 g/ha
  Plant response rating, Cotton: 10
Cotton [1]; PREEMERGENCE, Rate 50 g/ha
  Plant response rating, Cotton: 0
Cotton [1]; Rate 200 g/ha, PREEMERGENCE
  Plant response rating, Cotton: 9
Lambsquarters [2]; POSTEMERGENCE, Rate 50 g/ha
  Plant response rating, Lambsquarter: 10
Lambsquarters [2]; PREEMERGENCE, Rate 50 g/ha
  Plant response rating, Lambsquarter: 10
Lambsquarters [2]; Rate 200 g/ha, POSTEMERGENCE
  Plant response rating, Lambsquarter: 10
Lambsquarters [2]; Rate 200 g/ha, PREEMERGENCE
  Plant response rating, Lambsquarter: 10
rice; POSTEMERGENCE, Rate 50 g/ha
  Plant response rating, Rice: 5
rice; PREEMERGENCE, Rate 50 g/ha
  Plant response rating, Rice: 0
rice; Rate 200 g/ha, POSTEMERGENCE
  Plant response rating, Rice: 6
rice; Rate 200 g/ha, PREEMERGENCE
  Plant response rating, Rice: 2
wheat; POSTEMERGENCE, Rate 50 g/ha
  Plant response rating, Wheat: 4
wheat; PREEMERGENCE, Rate 50 g/ha
  Plant response rating, Wheat: 0
wheat; Rate 200 g/ha, POSTEMERGENCE
  Plant response rating, Wheat: 6
wheat; Rate 200 g/ha, PREEMERGENCE
  Plant response rating, Wheat: 2
Wild oat; POSTEMERGENCE, Rate 50 g/ha
  Plant response rating, Wild oat: 3
Wild oat; PREEMERGENCE, Rate 50 g/ha
  Plant response rating, Wild oat: 0
Wild oat; Rate 200 g/ha, POSTEMERGENCE
  Plant response rating, Wild oat: 5
bedstraw; POSTEMERGENCE
  Plant response rating, Bedstraw: 90
bedstraw; POSTEMERGENCE, Rate 1 g/ha
  Plant response rating (0 to 100), Bedstraw: 20
bedstraw; PREEMERGENCE
  Plant response rating, Bedstraw: 50
bedstraw; PREEMERGENCE, Rate 1 g/ha
  Plant response rating (0 to 100), Bedstraw: 0
bedstraw; PREEMERGENCE, Rate 4 g/ha
  Plant response rating (0 to 100), Bedstraw: 0
bedstraw; Rate 4 g/ha, POSTEMERGENCE
  Plant response rating (0 to 100), Bedstraw: 50
bedstraw; Rate 16 g/ha, POSTEMERGENCE
  Plant response rating (0 to 100), Bedstraw: 50
bedstraw; Rate 16 g/ha, PREEMERGENCE
  Plant response rating (0 to 100), Bedstraw: 20
Cotton [3]; POSTEMERGENCE
  Plant response rating, Cotton: 100
Cotton [3]; POSTEMERGENCE, Rate 1 g/ha
  Plant response rating (0 to 100), Cotton: 60
Cotton [3]; POSTEMERGENCE, Rate 4 g/ha
  Plant response rating (0 to 100), Cotton: 80
Cotton [3]; PREEMERGENCE
  Plant response rating, Cotton: 0
Cotton [3]; PREEMERGENCE, Rate 1 g/ha
  Plant response rating (0 to 100), Cotton: 0
Cotton [3]; PREEMERGENCE, Rate 4 g/ha
  Plant response rating (0 to 100), Cotton: 0
Cotton [3]; Rate 16 g/ha, POSTEMERGENCE
  Plant response rating (0 to 100), Cotton: 90
Cotton [3]; Rate 16 g/ha, PREEMERGENCE
  Plant response rating (0 to 100), Cotton: 0
crabgrass; POSTEMERGENCE
  Plant response rating, Crabgrass: 40
crabgrass; POSTEMERGENCE, Rate 1 g/ha
  Plant response rating (0 to 100), Crabgrass: 10
crabgrass; POSTEMERGENCE, Rate 4 g/ha
  Plant response rating (0 to 100), Crabgrass: 20
crabgrass; PREEMERGENCE
  Plant response rating, Crabgrass: 30
crabgrass; PREEMERGENCE, Rate 1 g/ha
  Plant response rating (0 to 100), Crabgrass: 0
crabgrass; PREEMERGENCE, Rate 4 g/ha
  Plant response rating (0 to 100), Crabgrass: 0
crabgrass; Rate 16 g/ha, POSTEMERGENCE
  Plant response rating (0 to 100), Crabgrass: 30
crabgrass; Rate 16 g/ha, PREEMERGENCE
  Plant response rating (0 to 100), Crabgrass: 10
Downy brome; POSTEMERGENCE
  Plant response rating Downy Brome: 40
Downy brome; POSTEMERGENCE, Rate 1 g/ha
  Plant response rating (0 to 100), Downy Brome: 10
Downy brome; POSTEMERGENCE, Rate 4 g/ha
  Plant response rating (0 to 100), Downy Brome: 20
Downy brome; PREEMERGENCE
  Plant response rating Downy Brome: 0
Downy brome; PREEMERGENCE, Rate 1 g/ha
  Plant response rating (0 to 100), Downy Brome: 0
Downy brome; PREEMERGENCE, Rate 4 g/ha
  Plant response rating (0 to 100), Downy Brome: 0
Downy brome; Rate 16 g/ha, POSTEMERGENCE
  Plant response rating (0 to 100), Downy Brome: 30
Downy brome; Rate 16 g/ha, PREEMERGENCE
  Plant response rating (0 to 100), Downy Brome: 0
Giant foxtail; POSTEMERGENCE
  Plant response rating, Giant foxtail: 50
Giant foxtail; POSTEMERGENCE, Rate 1 g/ha
  Plant response rating (0 to 100), Giant foxtail: 20
Giant foxtail; POSTEMERGENCE, Rate 4 g/ha
  Plant response rating (0 to 100), Giant foxtail: 30
Giant foxtail; PREEMERGENCE
  Plant response rating, Giant foxtail: 0
Giant foxtail; PREEMERGENCE, Rate 1 g/ha
  Plant response rating (0 to 100), Giant foxtail: 0
Giant foxtail; PREEMERGENCE, Rate 4 g/ha
  Plant response rating (0 to 100), Giant foxtail: 0
Giant foxtail; Rate 16 g/ha, POSTEMERGENCE
  Plant response rating (0 to 100), Giant foxtail: 40
Giant foxtail; Rate 16 g/ha, PREEMERGENCE
  Plant response rating (0 to 100), Giant foxtail: 0
Lambsquarters [4]; 62 g/ha, 0 to 100 scale
  Plant response rating Lambsquarters: 70
Lambsquarters [4]; Rate 1 g/ha
  Plant response rating (0 to 100), Lambsquarters: 60
Lambsquarters [4]; Rate 4 g/ha
  Plant response rating (0 to 100), Lambsquarters: 60
Lambsquarters [4]; Rate 16 g/ha
  Plant response rating (0 to 100), Lambsquarters: 70
sorghum; [5]
  Plant response rating, Sorghum: 70
sorghum; POSTEMERGENCE, Rate 1 g/ha
  Plant response rating (0 to 100), Sorghum: 20
sorghum; POSTEMERGENCE, Rate 4 g/ha
  Plant response rating (0 to 100), Sorghum: 30
sorghum; PREEMERGENCE, Rate 1 g/ha
  Plant response rating (0 to 100), Sorghum: 0
sorghum; PREEMERGENCE, Rate 4 g/ha
  Plant response rating (0 to 100), Sorghum: 0
sorghum; Rate 16 g/ha, POSTEMERGENCE
  Plant response rating (0 to 100), Sorghum: 60
sorghum; Rate 16 g/ha, PREEMERGENCE
  Plant response rating (0 to 100), Sorghum: 10
Sugar beet; [5]
  Plant response rating, Sugar beet: 100
Sugar beet; POSTEMERGENCE, Rate 1 g/ha
  Plant response rating (0 to 100), Sugar beet: 20
Sugar beet; POSTEMERGENCE, Rate 4 g/ha
  Plant response rating (0 to 100), Sugar beet: 70
Sugar beet; PREEMERGENCE, Rate 1 g/ha
  Plant response rating (0 to 100), Sugar beet: 0
Sugar beet; PREEMERGENCE, Rate 4 g/ha
  Plant response rating (0 to 100), Sugar beet: 0
Sugar beet; Rate 16 g/ha, POSTEMERGENCE
  Plant response rating (0 to 100), Sugar beet: 100
Sugar beet; Rate 16 g/ha, PREEMERGENCE
  Plant response rating (0 to 100), Sugar beet: 30
velvetleaf; [5]
  Plant response rating, Velvetleaf: 90
velvetleaf; POSTEMERGENCE, Rate 1 g/ha
  Plant response rating (0 to 100), Velvetleaf: 10
velvetleaf; POSTEMERGENCE, Rate 4 g/ha
  Plant response rating (0 to 100), Velvetleaf: 10
velvetleaf; PREEMERGENCE, Rate 1 g/ha
  Plant response rating (0 to 100), Velvetleaf: 0
velvetleaf; PREEMERGENCE, Rate 4 g/ha
  Plant response rating (0 to 100), Velvetleaf: 20
velvetleaf; Rate 16 g/ha, POSTEMERGENCE
  Plant response rating (0 to 100), Velvetleaf: 80
velvetleaf; Rate 16 g/ha, PREEMERGENCE
  Plant response rating (0 to 100), Velvetleaf: 100
Duck salad; [6]
  Plant response rating (0 to 100), Duck salad: 0
Duck salad; POSTEMERGENCE section, flood test, Rate 4 g/ha
  Plant response rating (0 to 100), Duck salad: 0
Duck salad; [7]
  Plant response rating (0 to 100), Duck salad: 20
Duck salad; [8]
  Plant response rating Duck salad: 50
barnyardgrass; [6]
  Plant response rating (0 to 100), Barnyardgrass 2: 10
barnyardgrass; Rate 4 g/ha, under POSTEMERGENCE head (flood test species)
  Plant response rating (0 to 100), Barnyardgrass 2: 20
barnyardgrass; [7]
  Plant response rating (0 to 100), Barnyardgrass 2: 75
barnyardgrass; [8]
  Plant response rating Barnyardgrass 2: 100
